The values that follow come from patent publication US11441162B2, “Human gut microbiome-derived biosynthetic enzymes for production of fatty acid amides” (Massachusetts Institute of Technology, priority 2019, dated 2022).

Where two headings read alike, the source gives them in different places.

In general, IC50 refers to the concentration that inhibits the measured activity by half.

Assay [1] addresses T1, GPR132 (Homo sapiens, UniProt Q9UNW8).
T1 sequence (Q9UNW8 1-380): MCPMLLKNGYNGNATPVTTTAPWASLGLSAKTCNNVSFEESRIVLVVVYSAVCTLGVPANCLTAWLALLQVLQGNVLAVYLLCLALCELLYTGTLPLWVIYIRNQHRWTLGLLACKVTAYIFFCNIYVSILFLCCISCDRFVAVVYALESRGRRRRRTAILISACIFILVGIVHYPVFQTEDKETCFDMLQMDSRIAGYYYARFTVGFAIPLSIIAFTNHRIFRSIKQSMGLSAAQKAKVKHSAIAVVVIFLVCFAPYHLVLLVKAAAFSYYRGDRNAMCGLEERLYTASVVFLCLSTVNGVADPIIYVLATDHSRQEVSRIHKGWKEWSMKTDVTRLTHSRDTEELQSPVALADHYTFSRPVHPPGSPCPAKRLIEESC
As to conditions: previously reported human microbiome-derived FAA GPCR modulator; read-out: GPR132 agonist at (previously reported); cited from earlier work.

Assay [2] concerns C protein of the L. clostridioforme, B. producta, C. celatum, C. sp pathways. Briefly: Substrate panel assay, condensation activity on amine panel. The class given is biochemical, Clostridia. To be noted: highest amine substrate of the panel for these four pathways; α-linolenic acid as fatty acid. As to the method:
The human gut lumen consists of various fatty acid and amine substrates from different sources that the pathway can incorporate for FAA production. To characterize the preferred product, an in vitro substrate panel assay was set up to investigate substrate selectivity of the biosynthetic enzymes for each of the eight identified HMP-derived pathways (FIG. 2A). A and C enzyme activity was measured for defined fatty acid and amines, respectively, to determine the substrates that each pathway prefers to incorporate for FAA production (FIG. 2B-2C). A panel of 25 fatty acids and 53 biogenic amines derived from Clostridia, human cells, and human diet that are known to be abundant in the human gut was selected (FIG. 2D).^43,44,45,46,47 For consistency, FAA product level, instead of PPi level, was used as the metric of A activity for the panel assay by adding tryptamine for all query fatty acid substrates to measure the level of C-independent FAA formation based on the UV absorbance of the indole chromophore (FIG. 2B). […]
For adenylation activity, adenylation and thiolation proteins (no condensation) were added with the query fatty acid substrate(s) and tryptamine as a UV-active chromophore. […] The reaction was mixed with equal volume of methanol, spun down at 21,000 g for 1 min, and analyzed with the same analytical LCMS run as described previously. […]

Another assay concerns the target P2RY4 (Homo sapiens, UniProt P51582). Briefly: Cell-based β-arrestin reporter assay (DiscoverX), P2RY4 antagonist mode: panel at 10 uM and concentration-response. As to conditions: in the presence of native agonist UTP at 2.79 uM (EC80); ten concentrations 100 to 0.0051 uM; read-out: IC50, inhibitory activity on P2RY4. As to the method:
FIGS. 31A-31H show GPCR activity assay of lauroyl tryptamine. a, Cell-based β-arrestin reporter assay (DiscoveRx) with a panel of 168 GPCRs with known ligands in agonist mode and antagonist mode, and also 73 orphan GPCRs in agonist mode at 10 uM. Agonist mode measures % activity of target GPCR by the compound, relative to the baseline value (0% activity) and maximum value with a known ligand, or twofold increase over baseline for orphan GPCR (100% activation). Antagonist mode measures % inhibition of target GPCR by the compound in the presence of a known ligand, relative to the value at the EC80 (0% inhibition) and basal value (100% inhibition). […] The production titer was determined to be 0.04 mg/L. f, Product titer of fatty acyl tryptamine from the in vivo extract of E. rectale in RCM, when fed with exogenous fatty acid (lauric acid, linoleic acid, oleic acid, docosahexaenoic acid, or α-linolenic acid). g, Mapping of human gut metatranscriptomic reads from subject subX316701492 (accession: SRX247340) onto a 80 kb region of the E. rectale genome centered on the FAA pathway (darker arrows, labeled “FAA”). […]
(§1) FAAs are known to modulate diverse biological functions by interacting with human GPCRs. […] The FAAs were analyzed for activity against a panel of known and orphan human GPCRs using the DiscoverX platform. […]

For another assay, the target named is EBI2/GPR183 (Homo sapiens, UniProt P32249). Nature of the assay: Cell-based β-arrestin reporter assay (DiscoverX), EBI2 antagonist mode: panel at 10 uM and concentration-response. To be noted: for inhibition on EBI2 (concentration-response, in words): antagonist mode against 7α,25-diHC; for IC50: in the presence of native agonist 7α,25-dihydroxycholesterol at 0.232 uM (EC80), ten concentrations 100 to 0.0051 uM, read-out: IC50, inhibitory activity on EBI2. As to the method:
FIGS. 31A-31H show GPCR activity assay of lauroyl tryptamine. a, Cell-based β-arrestin reporter assay (DiscoveRx) with a panel of 168 GPCRs with known ligands in agonist mode and antagonist mode, and also 73 orphan GPCRs in agonist mode at 10 uM. Agonist mode measures % activity of target GPCR by the compound, relative to the baseline value (0% activity) and maximum value with a known ligand, or twofold increase over baseline for orphan GPCR (100% activation). Antagonist mode measures % inhibition of target GPCR by the compound in the presence of a known ligand, relative to the value at the EC80 (0% inhibition) and basal value (100% inhibition). […] EBI2 antagonist activity (δ1%) is marked with an asterisk (*). b, Concentration-dose response curves of the inhibitory activity of lauroyl tryptamine, tryptamine, and lauric acid on EBI2 in the presence of the native agonist 7α,25-dihydroxycholesterol (7a,25-diHC) at 0.232 uM (EC80). […] IC50>100 uM for all three compounds. d, Concentration-dose response curves of the stimulatory activity of lauroyl tryptamine, tryptamine, and lauric acid on GPR132. […] For b, c, d, the curves span ten concentration points in duplicates from 100 to 0.0051 uM, with the error bar being the s.d. from duplicates. e, MS chromatogram (EIC ESI+[M+H]^+ m/z of lauroyl tryptamine, theoretical=343.2744, experimental=[…]) of the in vivo extract of E. rectale in RCM media (with no fed substrates). The samples are injected alongside a chemically synthesized and structurally verified standard. The * denotes lauroyl tryptamine. The production titer was determined to be 0.04 mg/L. f, Product titer of fatty acyl tryptamine from the in vivo extract of E. rectale in RCM, when fed with exogenous fatty acid (lauric acid, linoleic acid, oleic acid, docosahexaenoic acid, or α-linolenic acid). g, Mapping of human gut metatranscriptomic reads from subject subX316701492 (accession: SRX247340) onto a 80 kb region of the E. rectale genome centered on the FAA pathway (darker arrows, labeled “FAA”). The mean coverage of the 80 kb segment was 0.8 (SD=3.3), while the mean coverage of the FAA pathway by itself was 1.5 (SD=1.1). Housekeeping genes within this segment include tRNA synthetase (tR), carbohydrate metabolism (CM), and sugar transporter (ST) genes. h, Immunological and development role of the EBI2-oxysterol axis and its suppression by E. rectale-derived lauroyl tryptamine to possibly protect against IBD.
FAAs are known to modulate diverse biological functions by interacting with human GPCRs. The products of the FAA screen are either known GPCR ligands or appear to structurally mimic these molecules (FIG. 30). The FAAs were analyzed for activity against a panel of known and orphan human GPCRs using the DiscoverX platform. […]
On the technique in general: A reporter such as luciferase makes a cellular process visible.

Assay [3] addresses T1, GPR132. Briefly: Cell-based β-arrestin reporter assay (DiscoverX), GPR132 agonist mode: orphan panel at 10 uM and concentration-response. As to the method: FIGS. 31A-31H show GPCR activity assay of lauroyl tryptamine. a, Cell-based β-arrestin reporter assay (DiscoveRx) with a panel of 168 GPCRs with known ligands in agonist mode and antagonist mode, and also 73 orphan GPCRs in agonist mode at 10 uM. Agonist mode measures % activity of target GPCR by the compound, relative to the baseline value (0% activity) and maximum value with a known ligand, or twofold increase over baseline for orphan GPCR (100% activation). Antagonist mode measures % inhibition of target GPCR by the compound in the presence of a known ligand, relative to the value at the EC80 (0% inhibition) and basal value (100% inhibition). […] EBI2 antagonist activity (δ1%) is marked with an asterisk (*). b, Concentration-dose response curves of the inhibitory activity of lauroyl tryptamine, tryptamine, and lauric acid on EBI2 in the presence of the native agonist 7α,25-dihydroxycholesterol (7a,25-diHC) at 0.232 uM (EC80). […] IC50>100 uM for all three compounds. d, Concentration-dose response curves of the stimulatory activity of lauroyl tryptamine, tryptamine, and lauric acid on GPR132. […] For b, c, d, the curves span ten concentration points in duplicates from 100 to 0.0051 uM, with the error bar being the s.d. from duplicates. e, MS chromatogram (EIC ESI+[M+H]^+ m/z of lauroyl tryptamine, theoretical=343.2744, experimental=[…]) of the in vivo extract of E. rectale in RCM media (with no fed substrates). […] The production titer was determined to be 0.04 mg/L. f, Product titer of fatty acyl tryptamine from the in vivo extract of E. rectale in RCM, when fed with exogenous fatty acid (lauric acid, linoleic acid, oleic acid, docosahexaenoic acid, or α-linolenic acid). g, Mapping of human gut metatranscriptomic reads from subject subX316701492 (accession: SRX247340) onto a 80 kb region of the E. rectale genome centered on the FAA pathway (darker arrows, labeled “FAA”). […]
as §1

Another assay deals with T2, PRLHR (Homo sapiens, UniProt P49683).
T2 sequence (P49683 1-370): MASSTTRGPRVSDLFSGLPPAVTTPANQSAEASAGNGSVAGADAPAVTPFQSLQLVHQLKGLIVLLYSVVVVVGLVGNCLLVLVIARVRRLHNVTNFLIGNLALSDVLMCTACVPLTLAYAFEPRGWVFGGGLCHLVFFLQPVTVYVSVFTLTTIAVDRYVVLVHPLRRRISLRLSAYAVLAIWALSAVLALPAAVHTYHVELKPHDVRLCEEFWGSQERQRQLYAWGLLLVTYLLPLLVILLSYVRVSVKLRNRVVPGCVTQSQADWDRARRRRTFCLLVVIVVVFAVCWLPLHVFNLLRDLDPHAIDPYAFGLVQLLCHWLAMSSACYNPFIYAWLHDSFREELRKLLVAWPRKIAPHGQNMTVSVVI
Nature of the assay: Cell-based β-arrestin reporter GPCR panel (DiscoverX) at 10 uM, PRLHR. As to conditions: compound at 10 uM. As to the method: (§2) Cell-based β-arrestin reporter assay (DiscoveRx) with a panel of 168 GPCRs with known ligands in agonist mode and antagonist mode, and also 73 orphan GPCRs in agonist mode at 10 uM. Agonist mode measures % activity of target GPCR by the compound, relative to the baseline value (0% activity) and maximum value with a known ligand, or twofold increase over baseline for orphan GPCR (100% activation). Antagonist mode measures % inhibition of target GPCR by the compound in the presence of a known ligand, relative to the value at the EC80 (0% inhibition) and basal value (100% inhibition).
(§3) FAAs are known to modulate diverse biological functions by interacting with human GPCRs. The products of the FAA screen are either known GPCR ligands or appear to structurally mimic these molecules (FIG. 30). The FAAs were analyzed for activity against a panel of known and orphan human GPCRs using the DiscoverX platform. The major compound from the four human gut metagenome-derived pathways (oleoyl dopamine, oleoyl tyramine, oleoyl aminovaleric acid, and lauroyl tryptamine) were chemically synthesized and screened at 10 uM on a panel of 168 known GPCRs covering 60 distinct receptors in both agonist and antagonist mode and 73 orphan GPCRs in agonist mode. […]

The next assay deals with T3, NPSR1b (Homo sapiens, UniProt Q6W5P4).
T3 sequence (Q6W5P4 1-377 isoform Q6W5P4-4): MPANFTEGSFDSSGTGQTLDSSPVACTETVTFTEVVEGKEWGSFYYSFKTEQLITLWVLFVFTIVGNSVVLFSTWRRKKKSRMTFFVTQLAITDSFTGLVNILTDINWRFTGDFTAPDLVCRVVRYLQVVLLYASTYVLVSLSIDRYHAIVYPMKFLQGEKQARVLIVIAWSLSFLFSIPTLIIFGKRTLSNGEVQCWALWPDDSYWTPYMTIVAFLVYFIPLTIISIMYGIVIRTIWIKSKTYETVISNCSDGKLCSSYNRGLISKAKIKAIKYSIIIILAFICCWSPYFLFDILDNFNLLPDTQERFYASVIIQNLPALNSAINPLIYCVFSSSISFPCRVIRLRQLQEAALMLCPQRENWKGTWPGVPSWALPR
Briefly: Cell-based β-arrestin reporter GPCR panel (DiscoverX) at 10 uM, NPSR1b. To be noted: compound at 10 uM. As to the method: as §2, §3

The next assay addresses PTGER4 (Homo sapiens, UniProt P35408). Nature of the assay: Cell-based β-arrestin reporter GPCR panel (DiscoverX) at 10 uM, PTGER4. To be noted: antagonist mode, compound at 10 uM. As to the method:
as §2, §3

Where [4] appears, read: agonist mode, ten concentrations 100 to 0.0051 uM, read-out: EC50, stimulatory activity on GPR132.

Sequence of EBI2/GPR183 (P32249 whole entry): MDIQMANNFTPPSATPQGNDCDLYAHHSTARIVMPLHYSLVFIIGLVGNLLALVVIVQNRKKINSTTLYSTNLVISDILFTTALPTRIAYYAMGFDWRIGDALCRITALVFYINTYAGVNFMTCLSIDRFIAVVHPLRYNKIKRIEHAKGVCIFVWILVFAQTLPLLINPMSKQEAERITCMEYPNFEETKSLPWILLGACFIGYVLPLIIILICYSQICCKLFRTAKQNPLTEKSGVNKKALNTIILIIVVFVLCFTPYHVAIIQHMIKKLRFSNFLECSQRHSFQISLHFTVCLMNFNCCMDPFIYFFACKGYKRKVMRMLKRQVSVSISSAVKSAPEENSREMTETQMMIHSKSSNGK
Sequence of P2RY4 (P51582 whole entry): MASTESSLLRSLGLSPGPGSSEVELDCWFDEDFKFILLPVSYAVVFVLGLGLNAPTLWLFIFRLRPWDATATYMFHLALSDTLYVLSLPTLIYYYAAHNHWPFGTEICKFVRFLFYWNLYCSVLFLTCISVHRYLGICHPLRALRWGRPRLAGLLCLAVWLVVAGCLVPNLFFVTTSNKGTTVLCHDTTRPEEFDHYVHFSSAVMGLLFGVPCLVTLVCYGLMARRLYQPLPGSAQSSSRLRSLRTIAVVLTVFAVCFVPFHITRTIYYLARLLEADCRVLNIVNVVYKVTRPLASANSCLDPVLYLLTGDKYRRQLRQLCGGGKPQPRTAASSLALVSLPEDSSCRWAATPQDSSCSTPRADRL
Sequence of PTGER4 (P35408 whole entry): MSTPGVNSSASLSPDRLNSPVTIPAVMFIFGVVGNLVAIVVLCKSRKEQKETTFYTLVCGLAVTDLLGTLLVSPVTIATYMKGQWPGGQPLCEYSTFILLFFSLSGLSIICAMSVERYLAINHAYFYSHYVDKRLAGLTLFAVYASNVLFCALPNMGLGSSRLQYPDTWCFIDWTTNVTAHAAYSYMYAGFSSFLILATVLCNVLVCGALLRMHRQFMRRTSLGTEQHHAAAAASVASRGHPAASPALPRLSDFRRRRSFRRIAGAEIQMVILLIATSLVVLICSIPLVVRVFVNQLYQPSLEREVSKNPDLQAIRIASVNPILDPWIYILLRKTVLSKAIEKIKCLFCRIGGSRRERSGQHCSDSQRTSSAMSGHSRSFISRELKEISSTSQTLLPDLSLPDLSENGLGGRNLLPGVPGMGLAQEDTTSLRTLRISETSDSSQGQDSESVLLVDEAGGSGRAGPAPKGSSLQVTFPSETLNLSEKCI

As to `CCCCCCCCCCCCCC(O)CC(=O)NCC(=O)O` (centres unmarked) [commendamine], at GPR132 [1], the EC50 is 11.8 µM.
As to `N[C@@H](CCS)C(=O)O` [homocysteine], the “C protein enzymatic activity, fold difference with vs without condensation enzyme” value in assay [2] stood at 2 fold.
As for `CCCCCCCCCCCC(=O)O` [lauric acid], the IC50 at P2RY4 was over 100 µM. Further, at EBI2/GPR183, the “inhibition on EBI2 (concentration-response, in words)” value was “Neither lauric acid nor tryptamine showed inhibition” and the IC50 was over 100 µM. In addition, the EC50 on GPR132 [3] (setting [4]) was determined as 25.2 µM.
For `CCCCCCCCCCCC(=O)NCCc1c[nH]c2ccccc12` [lauroyl tryptamine], the figures for the IC50 on P2RY4 and at EBI2/GPR183 were over 100 µM and 0.98 µM, respectively. For the same compound, the EC50 at GPR132 [3] (setting [4]) came to 1.45 µM.
`CCCCCCCC/C=C\CCCCCCCC(=O)NCCc1ccc(O)cc1` [oleoyl tyramine]: the “activity on PRLHR in GPCR panel” value on PRLHR is given as “shares activity”. The “activity on NPSR1b in GPCR panel” value on NPSR1b is given as “shares activity”.
On to `NCCc1c[nH]c2ccccc12` [tryptamine], for which, on EBI2/GPR183, the “inhibition on EBI2 (concentration-response, in words)” value was “Neither lauric acid nor tryptamine showed inhibition”. The same compound came in with an EC50 on GPR132 [3] of over 100 µM.
As for oleoyl aminovaleric acid, the “inhibition of PTGER4 in GPCR panel” value on PTGER4 is “Inhibition was observed”.
